According to PMC8036666, “Biological and Physico-Chemical Characteristics of Arginine-Rich Peptide Gemini Surfactants with Lysine and Cystine Spacers” (International Journal of Molecular Sciences, 2021):
Converted amounts (≈) assume the structure as drawn. Marks after values point to notes of the source that are not given here. Where a SMILES comes first, the peptide text is derived from it. Bridges are numbered along the chain shown (N, C = ends). Roman numbers before positions name the chains, in order. Side-chain parts run from the residue outwards. The star is where a group is joined. Myristoyl = CCCCCCCCCCCCCC(=O)*; Lauroyl = CCCCCCCCCCCC(=O)*; Decanoyl = CCCCCCCCCC(=O)*; Octanoyl = CCCCCCCC(=O)*

Experiments:
[1] = system: human red blood cells (hRBCs); settings: cited from earlier work
[2] = system: E. coli ML-35 (ATCC 43827); assay: Inner membrane (IM) permeabilization kinetics, ONPG; format: cell-based, Escherichia coli; settings: for ti (t2), incubation time at the intersection of two tangents, IM permeabilization: 32 µg/mL; for ti (t1), incubation time at the intersection of two tangents, IM permeabilization: 64 µg/mL
From the text: (§1) The permeabilization of E. coli ML-35 (ATCC 43827) membranes was studied for selected compounds (A4, B2, C2, B7, and C7) to compare their activity and membrane disruption over time. […] For OM and IM permeabilization, CENTA and ONPG were used, respectively. The permeabilization of OM causes the release of periplasmic β-lactamase, which hydrolyzes CENTA’s β-lactam ring to form a chromophore, 2-nitro-5-thiobenzoate (TNB) anion, while the disruption of IM results in the release of β-galactosidase, which hydrolyzes ONPG into galactose and a chromophore, ortho-nitrophenol (ONP). Both products of enzymatic reaction absorb light at 405 nm.
Inner and outer membranes permeabilization kinetics were evaluated using Escherichia coli ML-35 (ATCC 43827) and chromogenic substrates—CENTA (BioVision, Milpitas, CA, USA) and o-nitrophenyl-β-d-galactopyranoside (ONPG) (Sigma-Aldrich, Steinheim, Germany), as described previously. To examine OM permeabilization, CENTA was used as a β-lactamase substrate. In effect of OM permeabilization, the enzyme can hydrolyze CENTA’s β-lactam ring.

[3] = system: E. coli ML-35 (ATCC 43827)
From the text: as §1
The MICs were determined by the broth microdilution method according to the Clinical and Laboratory Standard Institute guidelines. For this purpose, initial inoculums of bacteria (5 × 10^5 CFU/mL) in MHB and yeasts (2 × 10^3 CFU/mL) in RPMI-1640 with 2% D-glucose were exposed to the ranging concentration of lipopeptides (0.5–256 μg/mL) and incubated at 37 °C for 18 h and 24 h, respectively. The experiments were conducted on 96-well microtiter polystyrene plates (Kartell, Noviglio, Italy). The growth was assessed visually after incubation, and the MIC was assumed as the lowest peptide concentration at which a noticeable growth of microorganisms was inhibited. All experiments were conducted in triplicate.
Inner and outer membranes permeabilization kinetics were evaluated using Escherichia coli ML-35 (ATCC 43827) and chromogenic substrates—CENTA (BioVision, Milpitas, CA, USA) and o-nitrophenyl-β-d-galactopyranoside (ONPG) (Sigma-Aldrich, Steinheim, Germany), as described previously. To examine OM permeabilization, CENTA was used as a β-lactamase substrate. In effect of OM permeabilization, the enzyme can hydrolyze CENTA’s β-lactam ring. The resulting color change (2-nitro-5-thiobenzoate anion, TNB^-) could be measured spectrophotometrically at 405 nm. The IM permeabilization was monitored with ONPG, which is a chromogenic β-galactosidase substrate. The product of this reaction ([…]) was measured spectrophotometrically at 405 nm (Multiskan GO Microplate Spectrophotometer, Thermo Fisher Scientific, Vantaa, Finland). […] Bacteria were incubated in lysogeny broth medium (LB; Biocorp, Warszawa, Poland) for 24 h at 37 °C. Subsequently, the cells were diluted in a fresh LB medium and incubated at 37 °C up to a mid-log phase (ca. 3 h). The culture was centrifuged (3 min, 1100× g) and rinsed twice with a PBS. The bacteria were resuspended in PBS up to a concentration of 5 × 10^6 CFU/mL. The final concentration of ONPG and CENTA was 1.5 mM and 0.15 mM, respectively. The ONPG/CENTA in PBS (Sigma-Aldrich, Steinheim, Germany) was used as a negative control. […] Readings were taken every 15 min for 3 h at 37 °C [125, 142, 143, 144]. Experiments were performed in triplicate on 96-well flat bottom microtiter polystyrene plates.

[4] = in vitro; settings: human, 25% (v/v) normal human serum
Protocol: Serum stability of peptides B7 and C7 was tested in normal human serum (Sigma-Aldrich, Steinheim, Germany) according to the modified Jenssen and Aspmo protocol. Briefly, compounds were incubated in 25% (v/v) human serum solution in RPMI-1640 (Sigma-Aldrich, Steinheim, Germany) at 37 ± 0.1 °C. The final compound concentration was 50 µg/mL. Time intervals were 0, 1, 2, 3, 4, and 5 h. To precipitate serum proteins, 100 µL of solution was added to 200 µL of 96% ethanol (Pure P.A., POCH, Avantor Performance Materials S.A, Gliwice, Poland) and incubated at 4 °C before centrifugation (4 °C, 18,000× g, 2 min; Sorvall ST 16R Centrifuge, Thermo Scientific, Osterode am Harz, Germany). Subsequently, 200 µL of supernatant was transferred to glass vials (1.5 mL, Anchem, Poland), and the liquid was evaporated under nitrogen at 37 °C (approximately 30 min). The vials were lyophilized for 24 h to remove traces of solvents.
The influence of serum matrix on calibration curves was eliminated by the preparation of a series of vials with residual substances from serum. Briefly, ethanol was added to serum solution to precipitate proteins. Subsequently, the precipitate was centrifuged, and the supernatant was collected and evaporated to dryness as described above. Standards of the analyzed compounds were prepared in demineralized water in concentration ranging from 1 to 15 ppm. Next, 333 µL of solutions were moved to vials containing residual matrix substances (blank, without surfactant). Similarly, samples obtained after serum stability experiments were dissolved in 333 µL of demineralized water and analyzed. Analyses were performed using UPLC-HRMS. The mobile phase contained deionized water (solvent A) and acetonitrile (solvent B; ACN for HPLC-gradient grade; POCH, Avantor, Gliwice, Poland) both supplemented with a 0.1% (v/v) formic acid (Sigma-Aldrich, Steinheim, Germany).
The quantification of lipopeptides was performed using an Agilent 1290 Infinity chromatograph and Agilent 6550 Quadrupole Time-of-flight (Q-TOF) high-resolution mass spectrometer (HRMS). Gradient LC analyses were conducted using a ZORBAX Eclipse Plus C18 column (Rapid Resolution HD, 2.1 × 50 mm, 1.8 µm) and mobile phases: A—water containing 0.3% of acetonitrile and B—acetonitrile, both with 0.1% (v/v) formic acid. […] The mass detector equipped with an ESI source in HRMS mode was set in scanning mode 100–1700 m/z range in positive ionization. Chromatograms for a desired m/z value were extracted, and calibration curves were prepared using Mass Hunter software. All standards and serum samples were subjected to LC-MS analysis, and all analyses were performed in triplicate. Calibration curves were prepared for chromatograms extracted for m/z values corresponding to mono-, di-, tri- and tetra-charged ions. For analysis of peptide C7, a pseudomolecular ion [M+H]^+ (m/z 1227.8017) was selected, while for the other peptide B7, triple charged ion [M+3H]^3+ (m/z 378.9606).

Compound | HC50 [1] | ti (t2), incubation time at the intersection of two tangents, IM permeabilization [2] [min] | ti (t1), incubation time at the intersection of two tangents, IM permeabilization [2] [min] | MIC E. coli ML-35 (ATCC 43827) [3] [µg/mL] | further results
CCCCCCCC(=O)N[C@@H](CCCNC(=N)N)C(=O)N[C@@H](CCCNC(=N)N)C(N)=O [Compound A1, C8-RR-NH2] (Octanoyl-Arg-Arg-NH2) | >256 * µg/mL | – | – | – | –
CCCCCCCCCC(=O)N[C@@H](CCCNC(=N)N)C(=O)N[C@@H](CCCNC(=N)N)C(N)=O [Compound A2, C10-RR-NH2] (Decanoyl-Arg-Arg-NH2) | >256 * µg/mL | – | – | – | –
CCCCCCCCCCCC(=O)N[C@@H](CCCNC(=N)N)C(=O)N[C@@H](CCCNC(=N)N)C(N)=O [Compound A3, C12-RR-NH2] (Lauroyl-Arg-Arg-NH2) | >256 * µg/mL | – | – | – | –
CCCCCCCCCCCCCC(=O)N[C@@H](CCCNC(=N)N)C(=O)N[C@@H](CCCNC(=N)N)C(N)=O [Compound A4, C14-RR-NH2] (Myristoyl-Arg-Arg-NH2) | – | 77.6 | 39.0 | 32 (≈ 59.3 µM) | –
CCCCCCCCCC(=O)N[C@@H](CCCNC(=N)N)C(=O)N[C@@H](CCCNC(=N)N)C(=O)NCCCC[C@H](NC(=O)[C@H](CCCNC(=N)N)NC(=O)[C@H](CCCNC(=N)N)NC(=O)CCCCCCCCC)C(N)=O [Compound B2] (Decanoyl-Arg-Arg-Lys([Arg-Arg-Decanoyl])-NH2) | – | – | – | 32 (≈ 29.7 µM) | –
CCCCCCC(CCCC)C(=O)N[C@@H](CCCNC(=N)N)C(=O)N[C@@H](CCCNC(=N)N)C(=O)NCCCC[C@H](NC(=O)[C@H](CCCNC(=N)N)NC(=O)[C@H](CCCNC(=N)N)NC(=O)C(CCCC)CCCCCC)C(N)=O (some centres unmarked) [Compound B7] | – | – | – | 32 (≈ 28.2 µM) | remaining at 0 h, 50 µg/mL [4]: 100 ± 2.4%; remaining at 1 h, 50 µg/mL [4]: 94.3 ± 1.8%; remaining at 2 h, 50 µg/mL [4]: 87.3 ± 1.7%; remaining at 3 h, 50 µg/mL [4]: 83.1 ± 1.6%; remaining at 4 h, 50 µg/mL [4]: 80.1 ± 1.2%; remaining at 5 h, 50 µg/mL [4]: 63.2 ± 2.9%
CCCCCCCCCC(=O)N[C@@H](CCCNC(=N)N)C(=O)N[C@@H](CCCNC(=N)N)C(=O)N[C@@H](CSSC[C@H](NC(=O)[C@H](CCCNC(=N)N)NC(=O)[C@H](CCCNC(=N)N)NC(=O)CCCCCCCCC)C(N)=O)C(N)=O [Compound C2] (I: Decanoyl-Arg-Arg-Cys-NH2 / II: Decanoyl-Arg-Arg-Cys-NH2; disulfide I:3-II:3) | – | 45.7 | 42.0 | 32 (≈ 27.3 µM) | –
CCCCCCC(CCCC)C(=O)N[C@@H](CCCNC(=N)N)C(=O)N[C@@H](CCCNC(=N)N)C(=O)N[C@@H](CSSC[C@H](NC(=O)[C@H](CCCNC(=N)N)NC(=O)[C@H](CCCNC(=N)N)NC(=O)C(CCCC)CCCCCC)C(N)=O)C(N)=O (some centres unmarked) [Compound C7] | – | 68.6 | 43.9 | 64 (≈ 52.1 µM) | remaining at 0 h, 50 µg/mL [4]: 100 ± 1.1%; remaining at 1 h, 50 µg/mL [4]: 92.2 ± 2.1%; remaining at 2 h, 50 µg/mL [4]: 82.5 ± 1.3%; remaining at 3 h, 50 µg/mL [4]: 79.2 ± 1.6%; remaining at 4 h, 50 µg/mL [4]: 72.8 ± 3%; remaining at 5 h, 50 µg/mL [4]: 59.4 ± 1%
